Source: patent publication US12252524B2, “GIP/GLP1 co-agonist compounds” (Eli Lilly and Company, priority 2018, dated 2025)
Numbered stars: 1 amine (or outer) side, 2 acyl side, 3 side chain; on linkers, the order of the positions; unused ones are H or OH. Square brackets hold non-standard residues; d marks the D form. Side chains are listed from the residue outwards. Peptide text beside a SMILES is read from it. * marks the point of attachment. C20 diacid = O=C(O)CCCCCCCCCCCCCCCCCCC(=O)*; αMePhe(2-F) = C[C@](N)(Cc1ccccc1F)C(=O)O; γGlu = O=C(O)[C@H](CCC(=O)[*:2])N[*:1]; αMeL = CC(C)C[C@](C)(N)C(=O)O; AEEA = NCCOCCOCC(=O)O; Aib = CC(C)(N)C(=O)O

Legend:
human Gcg receptor = molecular target: T1, human Gcg receptor (Homo sapiens, UniProt P47871); test: [125I]-Glucagon binding (SPA), human Gcg receptor
T1 construct: expressed in transfected cells; crude membranes
T1 sequence (P47871 26-477): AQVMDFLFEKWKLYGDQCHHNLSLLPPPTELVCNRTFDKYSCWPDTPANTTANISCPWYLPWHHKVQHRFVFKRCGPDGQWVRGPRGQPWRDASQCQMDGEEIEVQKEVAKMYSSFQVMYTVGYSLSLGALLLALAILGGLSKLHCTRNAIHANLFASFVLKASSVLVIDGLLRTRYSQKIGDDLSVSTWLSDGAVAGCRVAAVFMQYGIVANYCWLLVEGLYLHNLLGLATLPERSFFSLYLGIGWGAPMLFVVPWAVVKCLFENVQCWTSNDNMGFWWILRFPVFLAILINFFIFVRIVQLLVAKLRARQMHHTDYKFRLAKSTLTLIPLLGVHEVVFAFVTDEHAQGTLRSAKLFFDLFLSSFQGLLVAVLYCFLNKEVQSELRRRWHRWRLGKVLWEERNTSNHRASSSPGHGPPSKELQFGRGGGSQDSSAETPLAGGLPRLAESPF
How it was run: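 Cell pellets were lysed in hypotonic Tris buffer, pH 7.5, homogenized, and spun at low then high speed to give crude membranes. Ki was derived from the fitted IC50.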

[1] = molecular target: human GLP-1 receptor (GLP-1R) (Homo sapiens, UniProt P43220); test: cAMP pharmacological functional assay in presence of casein, hGLP-1R; format: cell-based
human GLP-1 receptor (GLP-1R), sequence (P43220 24-463): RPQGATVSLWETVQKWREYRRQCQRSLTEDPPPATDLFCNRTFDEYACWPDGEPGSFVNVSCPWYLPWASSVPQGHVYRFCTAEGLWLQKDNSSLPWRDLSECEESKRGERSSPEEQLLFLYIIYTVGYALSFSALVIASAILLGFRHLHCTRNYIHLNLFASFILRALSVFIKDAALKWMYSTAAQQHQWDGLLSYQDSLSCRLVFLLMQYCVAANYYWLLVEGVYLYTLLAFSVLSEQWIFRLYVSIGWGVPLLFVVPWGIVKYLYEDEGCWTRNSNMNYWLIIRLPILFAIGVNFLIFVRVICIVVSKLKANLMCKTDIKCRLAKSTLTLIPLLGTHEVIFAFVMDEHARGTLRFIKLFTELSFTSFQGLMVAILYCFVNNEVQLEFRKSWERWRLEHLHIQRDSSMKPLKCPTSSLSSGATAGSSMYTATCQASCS

[2] = molecular target: T2, gastric inhibitory peptide receptor (GIPR) (Homo sapiens, UniProt P48546); test: cAMP pharmacological functional assay in presence of casein, hGIPR; format: cell-based
T2 sequence (P48546 22-466): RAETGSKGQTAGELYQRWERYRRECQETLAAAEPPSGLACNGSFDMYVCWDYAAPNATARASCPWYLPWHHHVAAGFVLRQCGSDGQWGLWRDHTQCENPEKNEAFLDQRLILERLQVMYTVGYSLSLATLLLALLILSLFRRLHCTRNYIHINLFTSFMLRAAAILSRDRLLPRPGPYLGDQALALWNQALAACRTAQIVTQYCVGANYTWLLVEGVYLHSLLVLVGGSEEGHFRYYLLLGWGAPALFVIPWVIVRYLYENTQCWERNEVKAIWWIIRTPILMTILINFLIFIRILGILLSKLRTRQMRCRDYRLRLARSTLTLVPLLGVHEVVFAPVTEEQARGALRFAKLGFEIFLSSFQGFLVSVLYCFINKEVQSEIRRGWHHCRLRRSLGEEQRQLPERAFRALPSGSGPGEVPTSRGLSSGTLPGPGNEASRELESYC

human GLP-1R [3] = molecular target: T3, human GLP-1R (Homo sapiens, UniProt P43220); test: GLP-1R CHO cell β-arrestin recruitment assay; format: cell-based; set-up: host or cells: CHO-K1 PathHunter cells, assay-ready frozen
T3 sequence (P43220 24-463): as the sequence (P43220 24-463) above
How it was run: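 PathHunter CHO-K1 cells with ProLink-tagged human GLP-1R and enzyme-acceptor-tagged β-arrestin-2 treated with serially diluted peptides in assay buffer containing 0.1% hydrolyzed casein, 90 min at 37 °C.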

human GLP-1R [4] = molecular target: T3, human GLP-1R; test: GLP-1R HEK293 cell membrane [35S]GTPγS binding assay; format: biochemical; set-up: expressed in transfected cells; host or cells: HEK293 cells expressing human GLP-1R; membranes
How it was run: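 Membranes from HEK293 cells expressing the receptor incubated with peptide and […] [35S]GTPγS in HEPES pH 7.4 buffer with NaCl, MgCl2, saponin and BSA, 30 min at room temperature. Gαs-bound label captured by anti-Gαs antibody/SPA beads and counted; EC50 from four-parameter logistic fit.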

| SMILES | Ki (human Gcg receptor) | EC50 [1] | EC50 [2] | EC50 (human GLP-1R [3]) | hGLP1R B-Arrestin2 % Top (human GLP-1R [3]; normalized to GLP-1 maximum control) | EC50 (human GLP-1R [4]) |
| --- | --- | --- | --- | --- | --- | --- |
| CC[C@H](C)[C@H](NC(=O)[C@H](CC(C)C)NC(=O)[C@H](Cc1ccc(O)cc1)NC(=O)[C@@H](CCC(=O)O)NC(=O)[C@@H](NC(=O)[C@H](Cc1ccccc1)NC(=O)[C@H](CCC(=O)O)NC(=O)C(C)(C)NC(=O)[C@H](CCC(N)=O)NC(=O)[C@H](C)NC(=O)[C@H](CCCCNC(=O)COCCOCCNC(=O)COCCOCCNC(=O)CC[C@H](NC(=O)CCCCCCCCCCCCCCCCCCC(=O)O)C(=O)O)NC(=O)[C@H](CCC(=O)O)NC(=O)[C@H](CC(=O)O)NC(=O)[C@H](CC(C)C)NC(=O)[C@](C)(CC(C)C)NC(=O)[C@@H](NC(=O)[C@H](CO)NC(=O)[C@H](Cc1ccc(O)cc1)NC(=O)[C@H](CC(=O)O)NC(=O)[C@H](CO)NC(=O)[C@@H](NC(=O)[C@](C)(Cc1ccccc1F)NC(=O)[C@@H](NC(=O)CNC(=O)[C@H](CCC(=O)O)NC(=O)C(C)(C)NC(=O)[C@@H](N)Cc1ccc(O)cc1)[C@@H](C)O)[C@@H](C)O)[C@@H](C)CC)[C@@H](C)CC)C(=O)N[C@@H](CCC(=O)O)C(=O)NCC(=O)NCC(=O)N1CCC[C@H]1C(=O)N[C@@H](CO)C(=O)N[C@@H](CO)C(=O)NCC(=O)N[C@@H](C)C(=O)N1CCC[C@H]1C(=O)N1CCC[C@H]1C(=O)N1CCC[C@H]1C(=O)N[C@@H](CO)C(N)=O [Example 1] (H-Y[Aib]EGT[αMePhe(2-F)]TSDYSI[αMeL]LDEK([AEEA-AEEA-γGlu-C20 diacid])AQ[Aib]EFI[dE]YLIEGGPSSGAPPPS-NH2) | 207 nM | 0.041 nM | 0.0356 nM | 5 nM | 105% | 0.235 nM |
| CC[C@H](C)[C@H](NC(=O)[C@H](CC(C)C)NC(=O)[C@H](Cc1ccc(O)cc1)NC(=O)[C@@H](CCC(=O)O)NC(=O)[C@@H](NC(=O)[C@H](Cc1ccccc1)NC(=O)[C@H](CCC(=O)O)NC(=O)C(C)(C)NC(=O)[C@H](CCC(N)=O)NC(=O)[C@H](C)NC(=O)[C@H](CCCCNC(=O)COCCOCCNC(=O)COCCOCCNC(=O)CC[C@H](NC(=O)CCCCCCCCCCCCCCCCCCC(=O)O)C(=O)O)NC(=O)[C@H](CCCN)NC(=O)[C@H](CC(=O)O)NC(=O)[C@H](CC(C)C)NC(=O)[C@](C)(CC(C)C)NC(=O)[C@@H](NC(=O)[C@H](CO)NC(=O)[C@H](Cc1ccc(O)cc1)NC(=O)[C@H](CC(=O)O)NC(=O)[C@H](CO)NC(=O)[C@@H](NC(=O)[C@](C)(Cc1ccccc1F)NC(=O)[C@@H](NC(=O)CNC(=O)[C@H](CCC(=O)O)NC(=O)C(C)(C)NC(=O)[C@@H](N)Cc1ccc(O)cc1)[C@@H](C)O)[C@@H](C)O)[C@@H](C)CC)[C@@H](C)CC)C(=O)N[C@@H](CCC(=O)O)C(=O)NCC(=O)NCC(=O)N1CCC[C@H]1C(=O)N[C@@H](CO)C(=O)N[C@@H](CO)C(=O)NCC(=O)N[C@@H](C)C(=O)N1CCC[C@H]1C(=O)N1CCC[C@H]1C(=O)N1CCC[C@H]1C(=O)N[C@@H](CO)C(N)=O [Example 3] | 242 nM | 0.0338 nM | 0.0411 nM | – | – | 0.421 nM |
